Assay results published in patent US20140221499A1, “NOVEL RODENT CONTROL AGENTS AND USES THEREOF” (priority 2011, published 2014).

Experiments:
[1] = molecular target: T1, rTAAR9 (Rattus norvegicus, UniProt Q923Y6); test: CRE-SEAP reporter gene assay in HEK293 cells transfected with rTAAR9; assay type: cell-based; conditions: FIG. 11A, functional with or without 'Rho tag', EC50 ± s.e.m., 4-parameter Hill equation
T1 construct: Full Taar coding regions were cloned into pcDNA3.1; expressed in transfected cells; host or cells: HEK293
T1 sequence (Q923Y6 1-338): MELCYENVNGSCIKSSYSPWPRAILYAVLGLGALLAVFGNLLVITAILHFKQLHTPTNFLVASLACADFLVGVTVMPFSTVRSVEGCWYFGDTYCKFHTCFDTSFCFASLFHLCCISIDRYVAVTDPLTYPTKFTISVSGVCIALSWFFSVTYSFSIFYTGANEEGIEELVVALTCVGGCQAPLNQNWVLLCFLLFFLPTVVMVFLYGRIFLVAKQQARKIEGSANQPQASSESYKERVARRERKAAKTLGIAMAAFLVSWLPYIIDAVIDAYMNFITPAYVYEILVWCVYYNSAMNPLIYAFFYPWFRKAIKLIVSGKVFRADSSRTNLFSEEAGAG
Description: (§1) FIG. 11 illustrates the dose-dependent responses of TAARs to amines. HEK293 cells were cotransfected with plasmids encoding CRE-SEAP and rTAARs (a) or mTAARs (b), incubated with concentrations of ligands indicated, and assayed for reporter activity (triplicates±s.d.). EC50 values (±s.e.m, bottom right) were calculated using SigmaPlot (Systat Software) and a 4-parameter Hill equation.
(§2) The following mixes (10 μM of each indicated compounds) were tested for their ability to activate rat TAARs. Mix 1: butylamine, dibutylamine, hexylamine. Mix 2: 2-aminopentane, isoamylamine, isobutylamine, isopropylamine. Mix 3: N,N-dimethylcyclohexylamine, 1-methylindole, tryptamine, phenylethylamine. Mix 4: indole, 1-methylpyrrolidine, 1-methylpiperidine, pyrrolidine. […]
(§3) Full Taar coding regions were cloned into pcDNA3.1-(Invitrogen) with or without a 5′ DNA extension of 69 bp encoding the first 20 amino acids of bovine rhodopsin followed by a cloning linker ([…]). […] Fluorescence was measured on an EnVision plate reader (Perkin Elmer) and SEAP activity graphed as relative fluorescence of a phosphatase substrate.
(§4) Here, we set out to identify agonists for additional mouse and rat TAARs. […] Transfected cells were incubated with test chemicals, and phosphatase activity was quantified with a fluorescent substrate as a reporter for TAAR activation. […]

[2] = molecular target: T2, rTAAR7b (Rattus norvegicus, UniProt Q923X8); test: CRE-SEAP reporter gene assay in HEK293 cells transfected with rTAAR7b; assay type: cell-based; set-up: Full Taar coding regions were cloned into pcDNA3.1; expressed in transfected cells; host or cells: HEK293; conditions: FIG. 11A, rTAAR7b did not work with a 'Rho tag' (unmodified form), EC50 ± s.e.m., 4-parameter Hill equation
T2 sequence (Q923X8 1-358): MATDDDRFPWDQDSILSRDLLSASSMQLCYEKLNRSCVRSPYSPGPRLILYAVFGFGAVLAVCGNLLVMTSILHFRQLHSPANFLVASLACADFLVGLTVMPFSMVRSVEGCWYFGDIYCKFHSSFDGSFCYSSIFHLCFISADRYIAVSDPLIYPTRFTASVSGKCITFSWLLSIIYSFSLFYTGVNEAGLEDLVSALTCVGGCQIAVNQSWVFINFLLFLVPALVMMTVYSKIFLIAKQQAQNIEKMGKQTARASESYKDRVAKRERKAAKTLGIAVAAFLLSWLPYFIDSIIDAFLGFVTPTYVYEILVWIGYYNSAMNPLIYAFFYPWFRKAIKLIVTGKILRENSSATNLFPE
Description: as §1, §2, §3, §4

CN(C)C1CCCCC1 [N,N-DIMETHYLCYCLOHEXYLAMINE, N,N-dimethylcyclohexylamine]
EC50 [1]: 26.6 ± 1.9 µM | EC50 [2]: 33.2 ± 12.8 µM
